“And” between values parts separate entries of the source, which are not always exact repeats. Equal entries are not always repeated. Toxic doses and inconclusive results are not listed. The calls were made as follows: active = survival T/C of 150% or more; inactive = T/C below 125% in these data.
System: BDF1 mice, B16 melanoma ip, median survival T/C
Assay: NCI In Vivo Anticancer Drug Screen. Data for tumor model B16 Melanoma (intraperitoneal) in B6D2F1 (BDF1) mice
Conditions: endpoint: median survival time, higher = longer survival
Outline: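 Read-out: survival or tumor size, given as treated/control ratio. Controls received vehicle only; animals bore transplantable tumors.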

[1] = dose: 100.0 mg/kg/injection, schedule: Q04DX003 (ip), vehicle: Klucel (hydroxypropylcellulose) (HPC)
[2] = dose: 200.0 mg/kg/injection, schedule: Q04DX003 (ip), vehicle: Klucel (hydroxypropylcellulose) (HPC)
[3] = dose: 400.0 mg/kg/injection, schedule: Q04DX003 (ip), vehicle: Klucel (hydroxypropylcellulose) (HPC)
[4] = dose: 6.25 mg/kg/injection, schedule: Q01DX009 (ip), vehicle: saline
[5] = dose: 50.0 mg/kg/injection, schedule: Q01DX009 (ip), vehicle: Klucel (hydroxypropylcellulose) (HPC)
[6] = dose: 100.0 mg/kg/injection, schedule: Q01DX009 (ip), vehicle: Klucel (hydroxypropylcellulose) (HPC)
[7] = dose: 200.0 mg/kg/injection, schedule: Q01DX009 (ip), vehicle: Klucel (hydroxypropylcellulose) (HPC)
[8] = dose: 12.5 mg/kg/injection, schedule: Q01DX009 (ip), vehicle: saline

Measured: T/C

CCN1/C(=C/C=C/C=C/c2sc3ccccc3[n+]2CC)Sc2ccccc21
inactive: dose: 0.01 mg/kg/injection, schedule: Q01DX009 (ip), vehicle: saline 100 % of control | dose: 0.02 mg/kg/injection, schedule: Q01DX009 (ip), vehicle: saline 98 % of control | dose: 0.05 mg/kg/injection, schedule: Q01DX009 (ip), vehicle: saline 93 % of control | dose: 0.1 mg/kg/injection, schedule: Q01DX009 (ip), vehicle: saline 98 % of control | dose: 0.2 mg/kg/injection, schedule: Q01DX009 (ip), vehicle: saline 100 % of control

Cn1c(N)c(N=O)c(=O)n(C)c1=O
inactive: dose: 90.0 mg/kg/injection, schedule: Q01DX009 (ip), vehicle: saline with Tween-80 100 % of control | dose: 180.0 mg/kg/injection, schedule: Q01DX009 (ip), vehicle: saline with Tween-80 90 % of control | dose: 360.0 mg/kg/injection, schedule: Q01DX009 (ip), vehicle: saline with Tween-80 100 % of control

COc1ccc(OC(=O)Nc2ccccc2Cl)cc1
inactive: [1] 106 % of control | [2] 103 % of control | [3] 103 % of control

COc1ccc(/C=N/n2c3ccccc3c3ccccc32)cc1OCCCN(C)C
inactive: dose: 0.39 mg/kg/injection, schedule: Q01DX009 (ip), vehicle: saline 120 % of control | dose: 0.78 mg/kg/injection, schedule: Q01DX009 (ip), vehicle: saline 102 % of control | dose: 1.56 mg/kg/injection, schedule: Q01DX009 (ip), vehicle: saline 112 % of control | dose: 3.12 mg/kg/injection, schedule: Q01DX009 (ip), vehicle: saline 105 % of control | [4] 105 % of control | dose: 12.5 mg/kg/injection, schedule: Q01DX009 (ip), vehicle: Klucel (hydroxypropylcellulose) (HPC) 97 % of control

CC(C)NC(=O)N(c1ccccc1)C(C)C
inactive: [5] 105 % of control | [6] 103 % of control

O=C/C=C/c1ccc([N+](=O)[O-])cc1
inactive: dose: 25.0 mg/kg/injection, schedule: Q01DX009 (ip), vehicle: saline with Tween-80 100 % of control

Clc1ncnc2nc[nH]c12
inactive: dose: 50.0 mg/kg/injection, schedule: Q01DX009 (ip), vehicle: saline sonified 92 % of control | dose: 50.0 mg/kg/injection, schedule: Q01DX009 (ip), vehicle: saline with Tween-80 86 % of control | dose: 100.0 mg/kg/injection, schedule: Q01DX009 (ip), vehicle: saline sonified 97 % of control | dose: 100.0 mg/kg/injection, schedule: Q01DX009 (ip), vehicle: saline with Tween-80 97 % of control | dose: 200.0 mg/kg/injection, schedule: Q01DX009 (ip), vehicle: saline sonified 110 % of control

CCC(C(N)=O)C1=CCCCC1 (centres undefined)
inactive: [6] 105 % of control | [7] 101 % of control

Cc1cn(C2CC(O)C(CO)O2)c(=O)[nH]c1=O (centres undefined)
inactive: [8] 88 % of control | dose: 32.0 mg/kg/injection, schedule: Q01DX009 (ip), vehicle: saline with Tween-80 111 % of control | dose: 32.0 mg/kg/injection, schedule: Q01DX009 (ip), vehicle: saline 95 % of control and 108 % of control | dose: 50.0 mg/kg/injection, schedule: Q03HX032 (ip), vehicle: saline 105 % of control | dose: 64.0 mg/kg/injection, schedule: Q01DX009 (ip), vehicle: saline with Tween-80 120 % of control | dose: 64.0 mg/kg/injection, schedule: Q01DX009 (ip), vehicle: saline 100 % of control and 101 % of control | dose: 100.0 mg/kg/injection, schedule: Q01DX009 (ip), vehicle: saline 103 % of control | dose: 100.0 mg/kg/injection, schedule: Q03HX032 (ip), vehicle: saline 97 % of control | dose: 128.0 mg/kg/injection, schedule: Q01DX009 (ip), vehicle: saline with Tween-80 120 % of control | dose: 128.0 mg/kg/injection, schedule: Q01DX009 (ip), vehicle: saline 98 % of control and 103 % of control | dose: 150.0 mg/kg/injection, schedule: Q02HX012 (ip), vehicle: saline 103 % of control | dose: 200.0 mg/kg/injection, schedule: Q01DX009 (ip), vehicle: saline 89 % of control | dose: 200.0 mg/kg/injection, schedule: Q02HX012 (ip), vehicle: saline 102 % of control | dose: 200.0 mg/kg/injection, schedule: Q03HX032 (ip), vehicle: saline 89 % of control | dose: 256.0 mg/kg/injection, schedule: Q01DX009 (ip), vehicle: saline with Tween-80 120 % of control | dose: 256.0 mg/kg/injection, schedule: Q01DX009 (ip), vehicle: saline 96 % of control and 102 % of control | dose: 300.0 mg/kg/injection, schedule: Q02HX012 (ip), vehicle: saline 102 % of control | dose: 400.0 mg/kg/injection, schedule: Q02HX012 (ip), vehicle: saline 102 % of control | dose: 400.0 mg/kg/injection, schedule: Q03HX032 (ip), vehicle: saline 92 % of control | dose: 512.0 mg/kg/injection, schedule: Q01DX009 (ip), vehicle: saline with Tween-80 91 % of control | dose: 512.0 mg/kg/injection, schedule: Q01DX009 (ip), vehicle: saline 104 % of control and 107 % of control | dose: 600.0 mg/kg/injection, schedule: Q02HX012 (ip), vehicle: saline 97 % of control

COC(=O)C1(C(=O)OC)C=CCCC1=O
inactive: [6] 99 % of control | [7] 97 % of control

Cc1ccc([N+](=O)[O-])c(O)c1[N+](=O)[O-]
inactive: [5] 100 % of control | [7] 90 % of control

O=C(Nc1ccccc1Cl)OCC(Cl)(Cl)Cl
inactive: dose: 75.0 mg/kg/injection, schedule: Q04DX003 (ip), vehicle: Klucel (hydroxypropylcellulose) (HPC) 96 % of control | dose: 150.0 mg/kg/injection, schedule: Q04DX003 (ip), vehicle: Klucel (hydroxypropylcellulose) (HPC) 91 % of control | dose: 300.0 mg/kg/injection, schedule: Q04DX003 (ip), vehicle: Klucel (hydroxypropylcellulose) (HPC) 102 % of control

O=C(O)/C=C/C(=O)Nc1ccccc1
inactive: [1] 106 % of control | [2] 96 % of control | [3] 103 % of control

CC(CC1c2ccccc2CCc2ccccc21)CN(C)C (centres undefined)
inactive: dose: 1.25 mg/kg/injection, schedule: Q01DX009 (ip), vehicle: saline 98 % of control | dose: 2.5 mg/kg/injection, schedule: Q01DX009 (ip), vehicle: saline 106 % of control | dose: 5.0 mg/kg/injection, schedule: Q01DX009 (ip), vehicle: saline 94 % of control | [4] 113 % of control | dose: 10.0 mg/kg/injection, schedule: Q01DX009 (ip), vehicle: saline 106 % of control | [8] 119 % of control | dose: 20.0 mg/kg/injection, schedule: Q01DX009 (ip), vehicle: saline 106 % of control | dose: 40.0 mg/kg/injection, schedule: Q01DX009 (ip), vehicle: saline 101 % of control | dose: 80.0 mg/kg/injection, schedule: Q01DX009 (ip), vehicle: saline 92 % of control

O=C(O)C(=O)O.O=C([O-])C(=O)O.O=C([O-])C(=O)O.O=C([O-])C(=O)[O-].[K+].[U]
inactive: dose: 0.5 mg/kg/injection, schedule: Q01DX009 (ip), vehicle: Klucel (hydroxypropylcellulose) (HPC) 98 % of control | dose: 1.0 mg/kg/injection, schedule: Q01DX009 (ip), vehicle: Klucel (hydroxypropylcellulose) (HPC) 97 % of control | dose: 1.0 mg/kg/injection, schedule: Q01DX009 (ip), vehicle: saline 100 % of control | dose: 2.0 mg/kg/injection, schedule: Q01DX009 (ip), vehicle: saline 98 % of control

O=[N+]([O-])c1ccc(O)c(N=Cc2ccc(C=Nc3cc([N+](=O)[O-])ccc3O)cc2)c1
inactive: dose: 75.0 mg/kg/injection, schedule: Q01DX009 (ip), vehicle: Klucel (hydroxypropylcellulose) (HPC) 89 % of control | dose: 150.0 mg/kg/injection, schedule: Q01DX009 (ip), vehicle: Klucel (hydroxypropylcellulose) (HPC) 93 % of control
